Assay results: US20230338396A1, “CANNABIDIOL AS A T[…] FOR COVID-19” (AUGUSTA UNIVERSITY RESEARCH INSTITUTE, INC., priority 2020, published 2023)
Entries after “also recorded” stand apart in the source; their conditions may differ.

Assays:
Poly(I:C)-induced ARDS [1] = type: in vivo, C57BL/6 mice; conditions: CBD 5 mg/kg intraperitoneal
T cells = assay: CBD inhalers in healthy young and older subjects, T cells; type: in vivo; conditions: CBD inhaler, 20 mg of CBD for 120 min
Poly(I:C)-induced ARDS [2] = assay: Poly(I:C)-induced ARDS in mice, apelin modulation by CBD (Example 2); type: in vivo, C57Bl/6 mice; conditions: CBD 5 mg/kg intraperitoneal, 3 doses, after Poly(I:C)
Acute Lung Injury (ALI) = assay: Inhaled CBD in Acute Lung Injury (ALI)/ARDS murine model with Poly(I:C); type: in vivo
[3] = inhaled CBD compared to CBD injection
[4] = inhaled CBD, Poly(I:C)-treated mice

C=C(C)[C@@H]1CCC(C)=C[C@H]1c1c(O)cc(CCCCC)cc1O [CBD, cannabidiol]
expression of IL-6 in lung (immunohistochemistry) (Poly(I:C)-induced ARDS [1]; 3 doses, after Poly(I:C)): reduced the expression of IL-6 | frequencies of neutrophils in the lung (immunohistochemistry) (Poly(I:C)-induced ARDS [1]; 3 doses, after Poly(I:C)): lowered the frequencies of neutrophils in the lung | inflammatory indices overall (flow cytometry of blood and lung) (Poly(I:C)-induced ARDS [1]; 3 doses, after Poly(I:C)): reversed all these inflammatory indices and partially re-established homeostasis | lung structural damage and symptoms (inflammatory infiltrate, fibrosis, hypertrophy, pulmonary edema; H&E histology) (Poly(I:C)-induced ARDS [1]; 3 doses, after Poly(I:C)): improves lung structure and function; also recorded: totally or partially reversed and returned to the level and condition of the normal | level of proinflammatory cytokines in blood (IL-6, IFNγ, TNFα) (Poly(I:C)-induced ARDS [1]; blood): reducing the number of neutrophils and monocytes as well as the level of proinflammatory cytokines significantly | number of neutrophils and monocytes in blood (flow cytometry) (Poly(I:C)-induced ARDS [1]; blood): reducing the number of neutrophils and monocytes | lymphocyte frequencies in blood (flow cytometry) (Poly(I:C)-induced ARDS [1]; blood, p<0.01): enhanced the rate of lymphocyte frequencies markedly | number of infiltrating neutrophils and macrophages in lung (flow cytometry) (Poly(I:C)-induced ARDS [1]; lung): downregulated the number of infiltrating neutrophils and macrophages markedly | level of cytokines in lung (flow cytometry) (Poly(I:C)-induced ARDS [1]; lung, p<0.05): reduced the level of cytokines significantly | effects on T cells frequencies or functionality (T cells): no negative effects | T cells in whole blood (flow cytometry) (Poly(I:C)-induced ARDS [2]; blood): returned decreased T cells and increased neutrophils towards the normal level | apelin expression in blood (flow cytometry) (Poly(I:C)-induced ARDS [2]; blood): normalized the expression level of apelin in the blood; also recorded: enhanced expression of apelin in the blood | neutrophils in whole blood (flow cytometry) (Poly(I:C)-induced ARDS [2]; blood): returned decreased T cells and increased neutrophils towards the normal level | apelin expression in lung tissue (immunofluorescence) (Poly(I:C)-induced ARDS [2]; lung): normalized the apelin expression in the lung tissues; also recorded: increased apelin expression towards control levels | pathological features of lung (histology, Masson's trichrome) (Poly(I:C)-induced ARDS [2]; lung): completely or partially abolished | IL-6 production in lung tissue (Acute Lung Injury (ALI); [3]): further down regulate IL-6 production | activated infiltrating leukocytes (Acute Lung Injury (ALI); [3]): decreased activated infiltrating leukocytes | destruction of lung (H&E) (Acute Lung Injury (ALI); [4]): able to prevent further destruction of lung | frequencies of T cells (lymphopenia) in peripheral blood and lung tissue (Acute Lung Injury (ALI); [4]): able to reinstate the frequencies of T cells
